From ChEMBL document CHEMBL1139101, “Potent, selective, and orally active adenosine A2A receptor antagonists: arylpiperazine derivatives of pyrazolo[4,3-e]-1,2,4-triazolo[1,5-c]pyrimidines” (Bioorg Med Chem Lett, 2007)
Converted amounts (≈) assume the structure as drawn.

Key:
Adenosine receptor A2a [1] = target: Adenosine receptor A2a (Homo sapiens, UniProt P29274); test: Binding affinity to human adenosine A2A receptor
Homo sapiens [2] = organism: Homo sapiens; test: Selectivity of human adenosine A2A receptor over human adenosine A1 receptor
Rattus norvegicus [3] = test: Inhibition of haloperidol-induced catalepsy in rat at 1 mg/kg, po after 1 hr; assay type: functional
Rattus norvegicus [4] = test: Inhibition of haloperidol-induced catalepsy in rat at 1 mg/kg, po after 4 hrs; assay type: functional
Adenosine receptor A2a [5] = target: Adenosine receptor A2a (Rattus norvegicus, UniProt P30543); test: Binding affinity to rat adenosine A2A receptor
Adenosine receptor A2a (Rattus norvegicus, UniProt P30543), sequence (P30543 whole entry): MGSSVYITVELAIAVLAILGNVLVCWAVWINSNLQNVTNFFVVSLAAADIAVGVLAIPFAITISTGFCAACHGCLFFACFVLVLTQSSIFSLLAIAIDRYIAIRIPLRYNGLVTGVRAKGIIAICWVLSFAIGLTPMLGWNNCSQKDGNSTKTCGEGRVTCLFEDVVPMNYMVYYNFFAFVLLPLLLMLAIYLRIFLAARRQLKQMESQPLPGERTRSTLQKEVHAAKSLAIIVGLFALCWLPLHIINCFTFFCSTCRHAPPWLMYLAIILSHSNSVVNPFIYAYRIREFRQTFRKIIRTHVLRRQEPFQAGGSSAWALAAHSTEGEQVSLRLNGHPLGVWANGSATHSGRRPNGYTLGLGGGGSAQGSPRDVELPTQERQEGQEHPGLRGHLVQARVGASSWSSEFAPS

Rattus norvegicus [6] = test: Reversal of haloperidol-induced catalepsy in orally dosed rat after 1 hr; assay type: functional; details: po, read-out: MED
Adenosine receptor A1 = target: T1, Adenosine receptor A1 (Homo sapiens, UniProt P30542); test: Binding affinity to human adenosine A1 receptor
T1 sequence (P30542 whole entry): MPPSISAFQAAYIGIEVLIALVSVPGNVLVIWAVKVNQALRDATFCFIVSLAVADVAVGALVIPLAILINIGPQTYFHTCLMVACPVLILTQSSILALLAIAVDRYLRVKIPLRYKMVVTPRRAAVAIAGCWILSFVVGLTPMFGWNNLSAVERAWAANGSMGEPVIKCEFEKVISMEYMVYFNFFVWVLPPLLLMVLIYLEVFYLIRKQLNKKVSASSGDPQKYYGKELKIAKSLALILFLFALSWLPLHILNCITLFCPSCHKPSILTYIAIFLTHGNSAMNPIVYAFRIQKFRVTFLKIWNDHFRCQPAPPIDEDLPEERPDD

Adenosine receptor A2b = target: T2, Adenosine receptor A2b (Homo sapiens, UniProt P29275); test: Binding affinity to human adenosine A2B receptor
T2 sequence (P29275 whole entry): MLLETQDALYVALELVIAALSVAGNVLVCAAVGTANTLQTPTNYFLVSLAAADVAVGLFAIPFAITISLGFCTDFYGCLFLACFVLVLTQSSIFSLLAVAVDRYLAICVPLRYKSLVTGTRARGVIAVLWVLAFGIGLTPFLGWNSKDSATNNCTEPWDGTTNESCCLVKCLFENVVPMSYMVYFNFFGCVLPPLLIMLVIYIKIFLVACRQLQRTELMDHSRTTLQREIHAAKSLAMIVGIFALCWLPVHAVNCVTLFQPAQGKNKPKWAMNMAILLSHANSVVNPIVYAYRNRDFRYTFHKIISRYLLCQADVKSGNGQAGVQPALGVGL

Adenosine receptor A3 = target: T3, Adenosine receptor A3 (Homo sapiens, UniProt P0DMS8); test: Binding affinity to human adenosine A3 receptor
T3 sequence (P0DMS8 whole entry): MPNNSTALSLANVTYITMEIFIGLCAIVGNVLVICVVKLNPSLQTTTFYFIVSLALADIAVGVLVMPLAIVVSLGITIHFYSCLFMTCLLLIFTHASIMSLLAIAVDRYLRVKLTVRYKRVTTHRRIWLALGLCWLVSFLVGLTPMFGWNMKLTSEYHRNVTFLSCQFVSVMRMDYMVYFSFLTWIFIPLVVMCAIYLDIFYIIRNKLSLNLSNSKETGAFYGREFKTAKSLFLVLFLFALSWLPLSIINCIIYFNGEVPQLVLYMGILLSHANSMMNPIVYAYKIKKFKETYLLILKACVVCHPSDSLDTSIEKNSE

[7] = Solubility in water at pH 5.1; assay type: physicochemical
[8] = Solubility in 0.01 N Hcl; assay type: physicochemical; details: buffer
Homo sapiens [9] = organism: Homo sapiens; test: Selectivity of human adenosine A2A receptor over human adenosine A2B receptor
Homo sapiens [10] = organism: Homo sapiens; test: Selectivity of human adenosine A2A receptor over human adenosine A3 receptor
[11] = target: Adenosine receptor A2a (Rattus norvegicus) (UniProt P30543); test: Antagonist activity at rat adenosine A2A receptor assessed as CGS 21680-induced inhibition of adenylate cyclase activity by cell-based assay; assay type: functional
Adenosine receptor A2a (Rattus norvegicus), sequence (P30543 whole entry): as the sequence (P30543 whole entry) above

[12] = Cmax in rat at 3 mg/kg, po; assay type: ADME, organism-based; set-up: dose 3 mg/kg, route oral; details: in vivo
[13] = Tmax in rat at 3 mg/kg, po; assay type: ADME, organism-based; set-up: dose 3 mg/kg, route oral; details: in vivo
[14] = AUC in rat at 3 mg/kg, po; assay type: ADME, organism-based; set-up: dose 3 mg/kg, route oral; details: plasma
[15] = Half life in rat at 1 mg/kg, iv; assay type: ADME, organism-based; set-up: dose 1 mg/kg, route intravenous; details: in vivo
[16] = Clearance in rat at 1 mg/kg, iv; assay type: ADME, organism-based; set-up: dose 1 mg/kg, route intravenous; details: in vivo
[17] = Volume of distribution at steady state in rat at 1 mg/kg, iv; assay type: ADME, organism-based; set-up: dose 1 mg/kg, route intravenous; details: in vivo, read-out: Vdss
[18] = Oral bioavailability in rat at 3 mg/kg; assay type: ADME, organism-based; details: in vivo
[19] = Ratio of drug level in brain to plasma in rat; assay type: ADME

Adenosine receptor A2a (Homo sapiens, UniProt P29274), sequence (P29274 whole entry): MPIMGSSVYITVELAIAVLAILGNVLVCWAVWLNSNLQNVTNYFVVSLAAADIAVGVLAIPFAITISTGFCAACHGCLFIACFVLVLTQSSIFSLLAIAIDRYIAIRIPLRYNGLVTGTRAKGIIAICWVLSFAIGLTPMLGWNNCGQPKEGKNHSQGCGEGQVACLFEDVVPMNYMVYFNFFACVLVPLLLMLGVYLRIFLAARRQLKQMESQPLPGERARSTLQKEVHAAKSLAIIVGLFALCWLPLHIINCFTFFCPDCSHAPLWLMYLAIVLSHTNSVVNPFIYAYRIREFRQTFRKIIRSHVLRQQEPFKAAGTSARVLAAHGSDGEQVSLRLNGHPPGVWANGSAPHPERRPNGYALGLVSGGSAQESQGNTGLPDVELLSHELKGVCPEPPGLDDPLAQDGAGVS

Compound | Ki (Adenosine receptor A2a [1]) [nM] | Ratio Ki (Homo sapiens [2]) | inhibition in vivo at 1 mg/kg (Rattus norvegicus [3]) [%] | inhibition in vivo at 1 mg/kg (Rattus norvegicus [4]) [%] | further results
Nc1nc2c(cnn2CCN2CCN(c3ccccc3)CC2)c2nc(-c3ccco3)nn12 | 1.6 | 343 | 52 | 0 | 
COCCOc1ccc(N2CCN(CCn3ncc4c3nc(N)n3nc(-c5ccco5)nc43)CC2)c(F)c1 | 0.4 | 1740 | 60 | 70 | 
COCCOc1ccc(N2CCN(CCn3ncc4c3nc(N)n3nc(-c5ccco5)nc43)CC2)cc1 [PRELADENANT] |  |  | 77 | 70 | Ki (Adenosine receptor A2a [5]): 2.5 nM; minimal effective dose (Rattus norvegicus [6]): 0.3 mg/kg; Ki (Adenosine receptor A1): > 1000 nM; Ki (Adenosine receptor A2b): > 1700 nM; Ki (Adenosine receptor A3): > 1000 nM; solubility [7]: 0.2 µM (≈ 0.101 µg/mL); solubility [8]: 2000 µM (≈ 1010 µg/mL)
Nc1nc2c(cnn2CCN2CCN(c3ccc(F)cc3)CC2)c2nc(-c3ccco3)nn12 | 1 | 101 | 8 |  | 
COC(C)COc1ccc(N2CCN(CCn3ncc4c3nc(N)n3nc(-c5ccco5)nc43)CC2)cc1 (racemic) | 1.6 | 539 | 55 | 20 | 
COCCOc1ccc(N2CCN(CCn3ncc4c3nc(N)n3nc(-c5ccco5)nc43)CC2)cc1 |  |  |  |  | Activity (Homo sapiens [9]): > 1000; Activity (Homo sapiens [10]): > 1000; Kb [11]: 0.7 nM
Nc1nc2c(cnn2CCN2CCN(c3ccc(OCCOC4CC4)cc3)CC2)c2nc(-c3ccco3)nn12 | 0.6 | 930 | 59 | 30 | 
CC(=O)COc1ccc(N2CCN(CCn3ncc4c3nc(N)n3nc(-c5ccco5)nc43)CC2)cc1 | 0.8 | 427 | 15 | 10 | 
CCOc1ccc(N2CCN(CCn3ncc4c3nc(N)n3nc(-c5ccco5)nc43)CC2)cc1 | 1.4 | 848 | 27 |  | 
COCCCOc1ccc(N2CCN(CCn3ncc4c3nc(N)n3nc(-c5ccco5)nc43)CC2)cc1 | 0.6 | 1160 | 8 | 2 | 
COCCOc1ccc(N2CCN(CCn3ncc4c3nc(N)n3nc(-c5ccco5)nc43)CC2)cc1.Cl |  |  |  |  | Cmax [12]: 762 nM; Tmax [13]: 0.25 h; AUC [14]: 1.56 µM·h; half-life [15]: 2.1 h; clearance [16]: 37 mL/min/kg; Vd [17]: 2.6 L/kg; bioavailability [18]: 57%; Kp [19]: 1
Nc1nc2c(cnn2CCN2CCN(c3ccc(OCCO)cc3)CC2)c2nc(-c3ccco3)nn12 | 0.6 | 1520 | 15 | 25 | 
Nc1nc2c(cnn2CCN2CCN(c3ccc(F)c(F)c3)CC2)c2nc(-c3ccco3)nn12 | 1.4 | 169 | 45 |  | 
Nc1nc2c(cnn2CCN2CCN(c3ccc(Cl)cc3)CC2)c2nc(-c3ccco3)nn12 | 0.5 | 1350 | 11 |  | 
Nc1nc2c(cnn2CCN2CCN(c3ccccc3F)CC2)c2nc(-c3ccco3)nn12 | 0.6 | 894 | 20 | 25 | 
N#Cc1ccc(N2CCN(CCn3ncc4c3nc(N)n3nc(-c5ccco5)nc43)CC2)cc1 | 2.1 | 571 | 0 |  | 
C[S+]([O-])COc1ccc(N2CCN(CCn3ncc4c3nc(N)n3nc(-c5ccco5)nc43)CC2)cc1 (stereo unspecified) | 2.2 | 523 | 30 | 5 | 
Nc1nc2c(cnn2CCN2CCN(c3ccc(F)cc3F)CC2)c2nc(-c3ccco3)nn12 | 0.6 | > 1600 | 75 | 80 | 
Nc1nc2c(cnn2CCN2CCN(c3ccc(F)c(F)c3F)CC2)c2nc(-c3ccco3)nn12 | 0.6 | 1500 | 65 | 40 | 
Nc1nc2c(cnn2CCN2CCN(c3ccc(O)cc3)CC2)c2nc(-c3ccco3)nn12 | 1.3 | 186 | 0 |  | 
Nc1nc2c(cnn2CCN2CCN(c3c(F)cc(F)cc3F)CC2)c2nc(-c3ccco3)nn12 | 1.1 | 319 | 65 | 75 | 
